Data from patent US20120035214A1, “RENIN INHIBITORS” (Merck Canada Inc., priority 2009, published 2012).

Columns and labels:
Human recombinant renin = target: T1, Human recombinant renin (Homo sapiens, UniProt P00797); assay: Inhibition of human recombinant renin (QFRET, buffer); type: biochemical; conditions: buffer: 50 mM MOPS pH 7.4, 100 mM NaCl, 0.002% Tween 20; 37° C., 3 hours
T1 construct: purchased Proteos
T1 sequence (P00797 67-406): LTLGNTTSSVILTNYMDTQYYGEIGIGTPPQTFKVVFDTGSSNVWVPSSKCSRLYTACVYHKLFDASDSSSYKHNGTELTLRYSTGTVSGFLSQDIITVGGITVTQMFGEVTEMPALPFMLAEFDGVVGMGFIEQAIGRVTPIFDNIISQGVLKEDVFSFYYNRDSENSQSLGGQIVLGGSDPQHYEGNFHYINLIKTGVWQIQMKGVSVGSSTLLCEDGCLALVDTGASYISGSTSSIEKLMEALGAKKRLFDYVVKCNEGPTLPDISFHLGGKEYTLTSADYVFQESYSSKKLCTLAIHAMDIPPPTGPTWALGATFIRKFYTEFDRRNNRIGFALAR
Outline: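 Renin at […] final in 50 mM MOPS pH 7.4, 100 mM NaCl, 0.002% Tween 20, with compounds diluted 50-fold from DMSO and 6 μM internally quenched DNP peptide substrate. Incubation 3 h at 37 °C; fluorescence (ex 328/em 388 nm) at 3 h minus t=0 background; IC50 derived.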

[1] = target: T2, recombinant renin in human plasma (Homo sapiens, UniProt P00797); assay: Inhibition of renin in human plasma (QFRET, plasma); type: biochemical; conditions: human EDTA plasma with 1 nM recombinant renin added; 37° C., 1 hour
T2 construct: purchased Proteos
T2 sequence (P00797 67-406): T1 sequence (P00797 67-406)
Outline: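 Cleared human EDTA plasma spiked with 1 nM recombinant renin. Compounds preincubated with the plasma for 10 min at 37 °C, then 6 µM internally quenched FAM peptide added (final 342 mM Tris pH 7.2, 23 mM EDTA) and incubated for 1 h at 37 °C. Fluorescence (490/520 nm) at 1 h minus t=0 gave IC50.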

In the case of `CC(=O)NCCc1ccccc1-c1onc([C@H]2CNCC[C@@H]2c2ccc(OCCOc3c(Cl)cc(C)cc3Cl)cc2)c1C(C)O` (stereo partly shown) [Structure 109], the IC50 (Human recombinant renin) is reported as 0.07 nM and the IC50 [1] is reported as 1.2 nM.
In the case of `COCCCC(CNC(C)=O)c1ccccc1-c1onc([C@H]2CNCC[C@@H]2c2ccc(OCCOc3c(Cl)cc(C)cc3Cl)cc2)c1Br` (stereo partly shown) [Structure 108], the IC50 (Human recombinant renin) is reported as 0.07 nM and the IC50 [1] is reported as 2 nM.
In the case of `CC(=O)NCCc1ccccc1-c1ccc([C@@H]2CNCC[C@H]2c2cccnc2)c(Cl)c1` [Structure 14], the IC50 (Human recombinant renin) is reported as 2630 nM and the IC50 [1] is reported as > 9500 nM.
`CC(=O)NCCc1ccccc1-c1ccc([C@H]2CNCC[C@@H]2c2cccnc2)c(C)c1` [Structure 4] gave an IC50 (Human recombinant renin) of 6.1 nM and an IC50 [1] of 28 nM.
`Cc1cc(-c2ccccc2OCc2cccnc2)ccc1[C@H]1CNCC[C@@H]1c1cc(F)cc(F)c1` (racemic) [Structure 38] was tested, and the IC50 (Human recombinant renin) was 150 nM and the IC50 [1] was > 28000 nM.
Work on `COCCCc1ccccc1-c1ccc([C@H]2CNCC[C@]2(OCC(O)CO)c2ccc(F)c(F)c2)c(C)c1` (mixture of isomers) [Structure 48] yielded an IC50 (Human recombinant renin) of 16 nM and an IC50 [1] of 2020 nM.
For `COC[C@H](C)COCc1ccc([C@@]2(O)CCNC[C@@H]2c2noc(-c3ccccc3CCNC(C)=O)c2Br)cc1` [Structure 89], the IC50 (Human recombinant renin) was 0.32 nM and the IC50 [1] was 1.2 nM.
Work on `COC[C@H](C)COCc1ccc([C@@]2(O)CCNC[C@@H]2c2ccc(-c3ccccc3CCNC(C)=O)cc2C)cc1` (racemic) [Structure 54] yielded an IC50 (Human recombinant renin) of 0.13 nM and an IC50 [1] of 1.2 nM.
Compound `COC[C@H](C)COCc1ccc([C@@]2(O)CCNC[C@@H]2c2ccc(-c3ccccc3CCNC(N)=O)cc2C)cc1` [Structure 124] has an IC50 (Human recombinant renin) of 0.63 nM and an IC50 [1] of 3.6 nM.
With `O[C@]1(c2ccc(F)c(F)c2)CCNC[C@@H]1c1cc(-c2c(Cl)cccc2Cl)on1` [Structure 79] the IC50 (Human recombinant renin) was 1330 nM and the IC50 [1] was > 28000 nM.
With `O[C@]1(c2ccc(F)c(F)c2)CCNC[C@@H]1c1onc(-c2cccc3ccccc23)c1Br` [Structure 75] the IC50 (Human recombinant renin) was 0.064 nM and the IC50 [1] was 4.7 nM.
